Experimental data published in US9957173B2, “Treatment of water” (BWA WATER ADDITIVES UK LIMITED, priority 2015, dated 2018).

Experiments:
Enterobacter aerogenes = assay: Log10 reduction in viable count of facultative anaerobes after treatment of inoculated high-TDS aqueous system; type: cell-based; details: for Log10 Reduction Facultative Anaerobes: TDS 30,000 mg l^−1, 8 = complete kill
Experimental: (§1) Aqueous systems inoculated with anaerobe and facultative anaerobe culture and having a total dissolved solids (TDS) concentration of 30,000 mg l^−1 were prepared and treated with treatment agents comprising: (a) a phosphonium compound and (b) a nitro compound. The phosphonium compound (a) used was tri n-butyl n-tetradecyl phosphonium chloride (TTPC). The nitro compound (b) used was 2-hydroxymethyl-2-nitro-1,3-propanediol (THNM).
(§2) A suspension of Desulfovibrio vulgaris plus Enterobacter aerogenes bacteria containing from 1×10^5 to 1×10^6 cells/mL was prepared in sterile pH 8 phosphate buffer containing sodium chloride to give the desired total dissolved solids (TDS) concentration. Aliquots of this suspension were dosed with the indicated concentrations of the compounds (a) and (b) with the concentrations being measured as ppm. The mixtures were allowed to stand at room temperature. At the designated contact times, each mixture was sampled to determine the total number of viable cells of both Desulfovibrio vulgaris and Enterobacter aerogenes by serial 10-fold dilution into API RP 38 media vials and anaerobic acid producing media vials, respectively. The vials were incubated at 37° C. for 72 hours. Results were recorded as log10 reduction in the viable count versus the control.
(§3) The efficacy of the treatment agents was evaluated by measuring the Log10 Reduction of the anaerobic bacterium Desulfovibrio vulgaris and the facultative anaerobic bacterium Enterobacter aerogenes after contact times of 1 hour, 4 hours and 24 hours as detailed in Table 1. For TTPC the stated ppm value relates to the amount of TTPC added (active). For the THNM the stated ppm relates to the amount of THNM added (active).

Desulfovibrio vulgaris = assay: Log10 reduction in viable count of anaerobes after treatment of inoculated high-TDS aqueous system; type: cell-based; details: for Log10 Reduction Anaerobes: TDS 30,000 mg l^−1, 5 = complete kill
Experimental: as §1, §2, §3

[1] = Example 3: THNM 75 ppm active alone, contact time 1 hour
[2] = Example 4: THNM 150 ppm active alone, contact time 1 hour
[3] = Example 11: THNM 75 ppm active alone, contact time 4 hours
[4] = Example 12: THNM 150 ppm active alone, contact time 4 hours
[5] = Example 19: THNM 75 ppm active alone, contact time 24 hours
[6] = Example 20: THNM 150 ppm active alone, contact time 24 hours
[7] = THNM alone, even at concentrations of 150 ppm
[8] = Example 1: TTPC 3.125 ppm active alone, contact time 1 hour
[9] = Example 2: TTPC 6.25 ppm active alone, contact time 1 hour
[10] = Example 9: TTPC 3.125 ppm active alone, contact time 4 hours
[11] = Example 10: TTPC 6.25 ppm active alone, contact time 4 hours
[12] = Example 17: TTPC 3.125 ppm active alone, contact time 24 hours
[13] = Example 18: TTPC 6.25 ppm active alone, contact time 24 hours

## O=[N+]([O-])C(CO)(CO)CO [THNM, 2-hydroxymethyl-2-nitro-1,3-propanediol]
Enterobacter aerogenes; [1]
  Log10 Reduction Facultative Anaerobes: 0
Enterobacter aerogenes; [2]
  Log10 Reduction Facultative Anaerobes: 0
Enterobacter aerogenes; [3]
  Log10 Reduction Facultative Anaerobes: 0
Enterobacter aerogenes; [4]
  Log10 Reduction Facultative Anaerobes: 0
Enterobacter aerogenes; [5]
  Log10 Reduction Facultative Anaerobes: 0
Enterobacter aerogenes; [6]
  Log10 Reduction Facultative Anaerobes: 0
Enterobacter aerogenes; [7]
  effect on facultative anaerobes: no affect
Desulfovibrio vulgaris; [1]
  Log10 Reduction Anaerobes: 0
Desulfovibrio vulgaris; [2]
  Log10 Reduction Anaerobes: 0
Desulfovibrio vulgaris; [3]
  Log10 Reduction Anaerobes: 0
Desulfovibrio vulgaris; [4]
  Log10 Reduction Anaerobes: 0
Desulfovibrio vulgaris; [5]
  Log10 Reduction Anaerobes: 0
Desulfovibrio vulgaris; [6]
  Log10 Reduction Anaerobes: 0
Desulfovibrio vulgaris; [7]
  effect on anaerobes: no affect

## CCCCCCCCCCCCCC[P+](CCCC)(CCCC)CCCC.[Cl-] [TTPC, tri n-butyl n-tetradecyl phosphonium chloride]
Enterobacter aerogenes; [8]
  Log10 Reduction Facultative Anaerobes: 1
Enterobacter aerogenes; [9]
  Log10 Reduction Facultative Anaerobes: 3
Enterobacter aerogenes; [10]
  Log10 Reduction Facultative Anaerobes: 2
Enterobacter aerogenes; [11]
  Log10 Reduction Facultative Anaerobes: 4
Enterobacter aerogenes; [12]
  Log10 Reduction Facultative Anaerobes: 3
Enterobacter aerogenes; [13]
  Log10 Reduction Facultative Anaerobes: 5
Desulfovibrio vulgaris; [8]
  Log10 Reduction Anaerobes: 0
Desulfovibrio vulgaris; [9]
  Log10 Reduction Anaerobes: 1
Desulfovibrio vulgaris; [10]
  Log10 Reduction Anaerobes: 5
Desulfovibrio vulgaris; [11]
  Log10 Reduction Anaerobes: 5
Desulfovibrio vulgaris; [12]
  Log10 Reduction Anaerobes: 5
Desulfovibrio vulgaris; [13]
  Log10 Reduction Anaerobes: 5
